Patent US10195204B2, “Methods of treating hemoglobinopathies” (DUKE UNIVERSITY, priority 2011, dated 2019)

Columns and labels:
Format in all cases: cell-based, human
[1] = tested on: SS RBC adhesion to HUVECs; assay: Flow chamber adhesion of SS RBCs to non-activated HUVECs; settings: for mean decrease in SS RBC adhesion after 30 min exposure: 30 min vs 1 min epinephrine
Method: Cells were then washed three times with 5 ml PBS with Ca^2+ and Mg^2+. Prior to adhesion assays, washed treated SS RBCs were labeled with PKH 26 red fluorescent cell linker kit (Sigma-Aldrich, St. Louis, Mo.), following the manufacturer's instructions. […] The flow chamber was mounted on the stage of an inverted phase contrast microscope (Diaphot, Nikon Inc., Melville, N.Y.) connected to a thermoplate (Tokai Hit Co., Ltd., Japan) set at 37° C. […] Before exposure to flow, a minimum of three fields at each of seven different locations along a line oriented normal to future flow were examined for the total number of fluorescent cells. Fluid flow (HBSS with Ca^2+, Mg^2+) was then started using a calibrated syringe pump. After exposure to flow, the fields were again examined and the number of adherent cells counted. The fraction of adherent cells was presented as (number of cells attached after exposure to flow)/(cells present per field before flow). The wall shear stress was calculated as: [formula] τw=wall shear stress (dyne/cm^2); Q=volumetric flow rate (cm^3/s); μ is media viscosity, w is the width of the flow channel, and H(x) is the height of the flow chamber as a function of position along the microscope slide. Several investigators have shown that blood flow in small vessels may be continuous, with shear stresses of 1-2 dynes/cm^2, or flow may be intermittent. Our data were obtained using both intermittent and continuous flow conditions.

[2] = tested on: glycophorin A phosphorylation; assay: 32P labeling, glycophorin A immunoprecipitation and phosphorylation in SS RBCs
Source text: Glycophorin A phosphorylation and immunoprecipitation. […] Cells were then washed 4 times. […] Blots were immunostained with anti-glycophorin A mAb.

[3] = tested on: ICAM-4 (LW) phosphorylation; assay: 32P labeling, ICAM-4 immunoprecipitation and detection of phosphorylation in SS RBCs
Method: Cells were then washed 4 times. ICAM-4 protein immunoprecipitation, and total and phospho-ICAM-4 detection were performed as previously described in detail.^4 To further confirm that the immunoprecipitates were specific for ICAM-4, anti-ICAM-4 mAb and the negative control immunoglobulin P3 were used to immunoprecipitate ICAM-4 from non-radiolabeled SS RBCs incubated in the presence or absence of epinephrine. Blots were then immunostained with anti-ICAM-4 mAb.

[4] = tested on: SS RBC membrane ghost phosphopeptides; assay: Label-free quantitative phosphoproteomic analysis of SS RBC membrane ghosts
Method: (§1) Ghosted RBCs were spun at 14,000 rpm for 15 min at 4° C. to pellet membranes. Membrane pellets were washed with 1 mL 50 mM ammonium bicarbonate (pH 8.0) with vortexing and were then spun at 14,000 rpm for 30 min at 4° C. The supernatant was then removed and 500 μL of 50 mM ammonium bicarbonate with μL 0.2% acid-labile surfactant (ALS-1) in 50 mM ammonium bicarbonate (pH 8.0) was added. Samples were subjected to probe sonication three-times for 5 sec with cooling on ice between and insoluble material was cleared by centrifugation at 14,000 rpm for 30 mins at 4° C. Samples were normalized to approximately 2 μg/μl following a micro-Bradford assay (Pierce Bioscience), and were reduced with a final concentration of 10 mM dithiothreitol at 80° C. for 20 min. Samples were then alkylated with a final concentration of 20 mM iodoacetamide at room temperature for 45 min and trypsin was added to a final ratio of 1-to-50 (w/w) enzyme-to-protein and allowed to digest at 37° C. for 18 hr. To remove ALS-1, samples were acidified to pH 2.0 with neat TFA, incubated at 60° C. for 2 hrs and spun at 14,000 rpm to remove hydrolyzed ALS-1. Samples were either subjected directly to LC-MS analysis or subjected to a TiO2 based phosphopeptide enriched protocol.
(§2) To enrich for phosphorylated peptides prior to LC-MS analysis, either 1,125 μg and 970 μg of total digested protein from RBC ghosts co-incubated with recombinant active ERK2 experiments and experiments using epinephrine-treated cells, respectively, were brought to near dryness using vacuum centrifugation and then resuspended in 200 μL of 80% acetonitrile, 1% TFA, 50 mg/ml MassPrep Enhancer (pH 2.5) (Waters Corp. Milford, Mass.). Samples were loaded onto an in-house packed TiO2 spin column (Protea Biosciences) with a 562 μg or 485 μg binding capacity for active ERK2 treated or epinephrine treated experiments, respectively. Samples were washed twice with 200 μL 80% acetonitrile, 1% TFA, 50 mg/ml MassPrep Enhancer (pH 2.5) followed by two washes with 200 μL 80% acetonitrile, 1% TFA (pH 2.5). Retained peptides were eluted twice with 100 μL 20% acetonitrile, 5% aqueous ammonia (pH 10.0), acidified to pH 3 with neat formic acid and then brought to dryness using vacuum centrifugation. Prior to LC-MS analysis, each sample was resuspended in 20 μL 2% acetonitrile, 0.1% TFA, 25 mM citric acid (pH 2.5).
Chromatographic separation of phosphopeptide enriched or non-enriched samples was performed on a Waters NanoAquity UPLC equipped with a 1.7 μm BEH130 C1875 μm I.D.×250 mm reversed-phase column. The mobile phase consisted of (A) 0.1% formic acid in water and (B) 0.1% formic acid in acetonitrile. Five μL injections of each sample were trapped for 5 min on a 5 μm Symmetry C18 180 μm I.D.×20 mm column at 20 μl/min in 99.9% A. The analytical column was then switched in-line and the mobile phase was held for 5 min at 5% B before applying a linear elution gradient of 5% B to 40% B or 5% B to 30% B over 90 min at 300 nL/min for ERK2 treated experiments or epinephrine treated experiments, respectively. The analytical column was connected to fused silica PicoTip emitter (New Objective, Cambridge, Mass.) with a 10 μm tip orifice and coupled to the mass spectrometer through an electrospray interface.
(§3) MS data from each phosphopeptide enriched sample was acquired on a Thermo LTQ-Orbitrap XL mass spectrometer operating in positive-ion mode with an electrospray voltage of 2.0 kV with real-time lockmass correction on ambiant polycyclodimethylsiloxane (m/z 445.120025) enabled. The instrument was set to acquire a precursor MS scan from m/z 400-2000 with r=60,000 at m/z 400 and a target AGC setting of 1e6 ions. Each sample was analyzed four-times, one of which was used for additional qualitative identifications only and was not included in the quantitative analysis, with product ions above a threshold of 500 counts were acquired for the top 5 most intense ions in the linear ion trap. […]

[5] = tested on: AA RBC membrane ghost phosphopeptides; assay: Label-free quantitative phosphoproteomic analysis of normal (AA) RBC membrane ghosts
Method: as §1
as §2, with “Prior to LC-MS analysis, each sample was resuspended in 20 μL 2% acetonitrile, 0.1% TFA, 25 mM citric acid (pH 2.5).” left out
as §3, with “The instrument was set to acquire a precursor MS scan from m/z 400-2000 with r=60,000 at m/z 400 and a target AGC setting of 1e6 ions.” left out

[6] = shear stress 2 dynes/cm^2, intermittent flow
[7] = SS RBCs vs SS RBCs treated with U0126
[8] = epinephrine in the presence of SPI
[9] = SS RBCs, epinephrine 30 min vs 1 min

| SMILES | inhibition of SS RBC adhesion to non-activated HUVECs vs sham-treated SS RBCs ([1]; U0126 alone) | inhibition of forskolin-increased SS RBC adhesion to HUVECs ([1]; shear stress 2 dynes/cm^2, compared to forskolin alone) | effect on epinephrine-induced SS RBC adhesion to HUVECs [1, 6] | effect on combined effect of epinephrine and SPI on glycophorin A phosphorylation ([2]; SS RBCs pre-incubated with 10 μM U0126 for 1 h) | effect on combined effect of epinephrine and SPI on ICAM-4 phosphorylation ([3]; SS RBCs preincubated with inhibitor) | change of Ser540/Ser542 doubly phosphorylated peptide within protein 4.1 ([4]; SS RBCs treated with U0126) | unique RBC membrane phosphopeptides significantly down-regulated [4, 7] | unique phosphoproteins carrying the down-regulated phosphopeptides [4, 7] | effect on Ser540/Ser542 doubly phosphorylated peptide within protein 4.1 ([5]; AA RBCs treated with U0126) | mean decrease in SS RBC adhesion after 30 min exposure ([1]; constant flow) | mean decrease in SS RBC adhesion after 30 min exposure ([1]; intermittent flow) | effect on SS RBC adhesion to HUVECs [1, 6] | increase in glycophorin A phosphorylation over sham-treated SS RBCs [2, 8] | ICAM-4 phosphorylation over sham-treated cells ([3]; epinephrine 1 min in the presence of SPI (FIG. 4F)) | ICAM-4 phosphorylation vs 1 min exposure ([3]; epinephrine 30 min in the presence of SPI) | increase in ICAM-4 phosphorylation over sham-treated SS RBCs [3, 8] | change in phosphorylation of serine 310 within CAP1 [4, 9] | change in phosphorylation of threonine 307 within CAP1 [4, 9] | change in phosphorylation of the CAP1 serine ([5]; AA RBCs, epinephrine 30 min vs 1 min) |
| --- | --- | --- | --- | --- | --- | --- | --- | --- | --- | --- | --- | --- | --- | --- | --- | --- | --- | --- | --- |
| N#CC(=C(/N)Sc1ccccc1N)/C(C#N)=C(\N)Sc1ccccc1N [U0126] | 91±4.6% | 83±4% | completely inhibited | significantly decreased | significantly decreased | −1.7 fold | 36 | 22 | did not induce a decrease | – | – | – | – | – | – | – | – | – | – |
| CNC[C@H](O)c1ccc(O)c(O)c1 [epinephrine] | – | – | – | – | – | – | – | – | – | 73±4.7% | 56±1.5% | significantly up-regulated | 2.93±0.35 fold | 1.84±0.15 fold | significantly diminished | 7.4±1.07 fold | −4.3 fold | −1.4 fold | +1.4 fold |
